Results taken from patent US20250230193A1, “CYCLIC COMPOUND HAVING SELECTIVE KRAS INHIBITORY EFFECT ON HRAS AND NRAS” (CHUGAI SEIYAKU KABUSHIKI KAISHA, priority 2022, published 2025).
*1 amine or outer side, *2 acyl side, *3 side chain or, on linkers, in order; H or OH if unused. Where a SMILES comes first, the peptide text is derived from it. Bridges are numbered along the chain shown (N, C = ends). [ ]: non-standard residue; d: D form. The star is where a group is joined. hPhe(3-Cl-4-CF3) = N[C@@H](CCc1ccc(C(F)(F)F)c(Cl)c1)C(=O)O; NPrPhe(4-CF3) = CCCN[C@@H](Cc1ccc(C(F)(F)F)cc1)C(=O)O; NPrAsp = CCCN([C@@H](CC(=O)[*:3])C(=O)[*:2])[*:1]; NMeGly(cPent) = CN[C@H](C(=O)O)C1CCCC1; NMeNva = CCC[C@H](NC)C(=O)O; Morpholide = C1CN(*)CCO1; Ac4c = NC1(C(=O)O)CCC1; Sar = CNCC(=O)O

Tests used:
[1] = molecular target: GDP-bound NRAS wild-type protein (Homo sapiens, UniProt P01111); test: Binding to NRAS by surface plasmon resonance (SPR), Single Cycle Kinetics
[2] = molecular target: GDP-bound HRAS wild-type protein (Homo sapiens, UniProt P01112); test: Binding to HRAS by surface plasmon resonance (SPR), Single Cycle Kinetics
[3] = GDP-bound NRAS wild-type vs GDP-bound KRAS wild-type, SPR
[4] = GDP-bound HRAS wild-type vs GDP-bound KRAS wild-type, SPR

Sequence of GDP-bound NRAS wild-type protein (P01111 whole entry): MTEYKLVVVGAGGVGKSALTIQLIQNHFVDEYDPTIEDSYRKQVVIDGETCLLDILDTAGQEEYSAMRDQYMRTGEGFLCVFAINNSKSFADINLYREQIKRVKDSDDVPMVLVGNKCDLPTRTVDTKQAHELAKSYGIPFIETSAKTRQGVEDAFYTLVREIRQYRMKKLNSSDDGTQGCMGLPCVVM
Sequence of GDP-bound HRAS wild-type protein (P01112 whole entry): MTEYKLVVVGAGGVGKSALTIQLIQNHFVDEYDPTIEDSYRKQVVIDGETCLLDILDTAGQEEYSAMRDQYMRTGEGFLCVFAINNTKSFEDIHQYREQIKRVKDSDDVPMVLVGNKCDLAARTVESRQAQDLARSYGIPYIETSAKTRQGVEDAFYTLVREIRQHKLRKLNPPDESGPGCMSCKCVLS

| Structure (SMILES) | NRAS/KRAS (ratio of KD value for NRAS to KD value for KRAS) [1, 3] | HRAS/KRAS (ratio of KD value for HRAS to KD value for KRAS) [2, 4] | other results |
| --- | --- | --- | --- |
| CCC[C@H]1C(=O)N[C@@H]([C@@H](C)CC)C(=O)N(C)CC(=O)N(C)CC(=O)N(CCC)[C@@H](Cc2ccc(C(F)(F)F)cc2)C(=O)N(C)CC(=O)N[C@@H](CCc2ccc(C(F)(F)F)c(Cl)c2)C(=O)N2CCC[C@H]2C(=O)NC2(CCC2)C(=O)N(C)[C@@H](C2CCCC2)C(=O)N(CCC)[C@H](C(=O)N2CCOCC2)CC(=O)N1C [PP1954] ([NMeNva]I[Sar][Sar][NPrPhe(4-CF3)][Sar][hPhe(3-Cl-4-CF3)]P[Ac4c][NMeGly(cPent)][NPrAsp]-Morpholide; lactam N-11) | B (a compound having 3 or more and less than 10 is denoted as B) | B (a compound having 3 or more and less than 10 is denoted as B) | – |
| CC[C@H](C)[C@@H]1NC(=O)[C@H](CC2CC2)N(C)C(=O)C[C@@H](C(=O)N(C)C)N(C)C(=O)[C@H](C2CCCC2)N(C)C(=O)C2(CC(C)(C)C2)NC(=O)[C@@H]2CC(F)(F)CN2C(=O)[C@H](CCc2cc(F)c(C(F)(F)F)c(F)c2)NC(=O)CN(C)C(=O)[C@H](Cc2ccc(C(F)(F)F)cc2)N2CC/C=C\C[C@@H](C2=O)N(C)C(=O)CN(C)C1=O [PP1713] | A (a compound having 10 or more and less than 20 is denoted as A) | A (a compound having 10 or more and less than 20 is denoted as A) | – |
| CCO[C@@H]1C[C@H]2C(=O)NC3(CC(F)(F)C3)C(=O)N(C)[C@@H](C3CCCC3)C(=O)N(C)[C@H](C(=O)N(C)CC)CC(=O)N(C)[C@@H](CC3CC3)C(=O)N[C@@H]([C@@H](C)CC)C(=O)N(C)CC(=O)N(C)[C@H]3C/C=C\CCN(C3=O)[C@@H](Cc3ccc(C(F)(F)F)cc3)C(=O)N(C)CC(=O)N[C@@H](CCc3cc(F)c(C(F)(F)F)c(F)c3)C(=O)N2C1 [PP1738] | AA (a compound having 20 or more is denoted as AA) | A (a compound having 10 or more and less than 20 is denoted as A) | – |
| CCC[C@H]1C(=O)N[C@H]([C@@H](C)CC)C(=O)N(C)CC(=O)N(C)[C@H]2C/C=C\CCN(C2=O)[C@@H](Cc2ccc(C)cc2)C(=O)N(C)CC(=O)N[C@@H](CCc2cc(F)c(C(F)F)c(F)c2)C(=O)N2C[C@H](OCC)C[C@H]2C(=O)NC2(CC(C)(C)C2)C(=O)N(C)[C@@H](C(CC)CC)C(=O)N(C)[C@H](C(=O)N(C)C)CC(=O)N1C (stereo in doubt) [PP2783] | – | – | NRAS/KRAS (ratio of KD value with respect to GDP-bound NRAS wild-type protein to KD value with respect to KRAS) ([1]; KD ratio NRAS/KRAS, class symbols): A (a compound having 10 or more and less than 20 is denoted as A); HRAS/KRAS (ratio of KD value with respect to GDP-bound HRAS wild-type protein to KD value with respect to KRAS) ([2]; KD ratio HRAS/KRAS, class symbols): A (a compound having 10 or more and less than 20 is denoted as A) |
| CC[C@H](C)[C@@H]1NC(=O)[C@H](CC2CC2)N(C)C(=O)C[C@@H](C(=O)N(C)CC)N(C)C(=O)[C@H](C2CCCC2)N(C)C(=O)C2(CC(C)(C)C2)NC(=O)[C@@H]2C[C@@H](C)CN2C(=O)[C@H](CCc2ccc(C(F)(F)F)c(OC)c2)NC(=O)CN(C)C(=O)[C@H](Cc2ccc(C)cc2)N2CC/C=C\C[C@@H](C2=O)N(C)C(=O)CN(C)C1=O [PP1902] | A (a compound having 10 or more and less than 20 is denoted as A) | A (a compound having 10 or more and less than 20 is denoted as A) | – |
| CCO[C@@H]1C[C@H]2C(=O)NC3(CC(C)(C)C3)C(=O)N(C)[C@@H](C(CC)CC)C(=O)N(C)[C@H](C(=O)N(C)C)CC(=O)N(C)[C@@H](CC(C)C)C(=O)N[C@@H]([C@@H](C)CC)C(=O)N(C)CC(=O)N(C)[C@H]3C/C=C\CCN(C3=O)[C@@H](Cc3ccc(C)cc3)C(=O)N(C)CC(=O)N[C@@H](CCc3ccc(C(F)(F)F)c(Cl)c3)C(=O)N2C1 [PP2148] | – | – | NRAS/KRAS (ratio of KD value with respect to NRAS to KD value with respect to KRAS) ([1]; SPR, GDP-bound NRAS wild-type vs GDP-bound KRAS wild-type): A (a compound having 10 or more and less than 20 is denoted as A); HRAS/KRAS (ratio of KD value with respect to HRAS to KD value with respect to KRAS) ([2]; SPR, GDP-bound HRAS wild-type vs GDP-bound KRAS wild-type): A (a compound having 10 or more and less than 20 is denoted as A) |
| CCCN(C)C(=O)[C@@H]1CC(=O)N(C)[C@@H](C)C(=O)N[C@@H]([C@@H](C)CC)C(=O)N(C)CC(=O)N(C)[C@H]2C/C=C\CCN(C2=O)[C@@H](Cc2ccc(C(F)(F)F)cc2)C(=O)N(C)CC(=O)N[C@@H](CCc2cc(F)c(C(F)(F)F)c(F)c2)C(=O)N2C[C@H](OCC)C[C@H]2C(=O)NC2(CCC2)C(=O)N(C)[C@@H](C2CCCC2)C(=O)N1C [PP1666] | A (a compound having 10 or more and less than 20 is denoted as A) | A (a compound having 10 or more and less than 20 is denoted as A) | – |
